Assay results: patent US20230210851A1, “SPIRO-LACTAM COMPOUNDS AND METHODS OF TREATING VIRAL INFECTIONS USING THE SAME” (Aptinyx Inc., priority 2020, published 2023)
Read-outs that look alike come from different tables or passages of the source.

Target: T1, 3CL Protease, MBP-tagged (SARS-CoV-2) (Severe acute respiratory syndrome coronavirus 2, UniProt P0DTD1)
T1 construct: The assay was performed using 3CL Protease, MBP-tagged (SARS-CoV-2) Assay kit; MBP; purchased BPS Biosciences 79955-2
Test: biochemical
Details: for IC50: compound study, 10 point dose response curve; for activity at tested concentrations: tested concentrations 0.002-30 µM

[1] = 30 µM concentration, approximate values, read-out: inhibition at 30 µM concentration
[2] = COVID-19 3CL Protease inhibitory activity at 30 µM compound, read-out: % Inhibition at 30 µM
[3] = read-out: % Inhibition at 30 µM, COVID-19 3CL Protease inhibitory activity at 30 µM compound
[4] = COVID-19 3CL Protease inhibitory activity at 30 µM compound
[5] = COVID-19 3CL Protease inhibitory activity at 30 µM compound, 30 µM

Q: What does the source list for `O=C(CCl)N1CCN(Cc2ccc(F)cc2)C2(CCNC2=O)C1` (single isomer, unassigned) [ET-108, 9-(2-chloroacetyl)-6-(4-fluorobenzyl)-2,6,9-triazaspiro[4.5]decan-1-one]?
A: inhibition at 30 µM [1]: ~84%; inhibition at 30 µM [2]: 84%; IC50: 6 µM

Q: How did the inhibition at 30 µM [3] turn out when `CC(=O)N1CCN(Cc2ccccc2)[C@]2(CCNC2=O)C1` [ES-319] was run?
A: Its inhibition at 30 µM is 0%.

Q: And the “activity at tested concentrations” value?
A: Its value is “inactive”.

Q: With `CC(=O)N1CCN(Cc2ccccc2)[C@@]2(CCNC2=O)C1` [ES-320] as the compound, how does the inhibition at 30 µM [3] read?
A: The inhibition at 30 µM was 0%.

Q: And the “activity at tested concentrations” value?
A: The value was “inactive”.

Q: `O=C(CCl)N1CCN(Cc2ccccc2)[C@@]2(CCNC2=O)C1` [ET-103, 6-benzyl-9-(2-chloroacetyl)-2,6,9-triazaspiro[4.5]decan-1-one] was tested. Which inhibition at 30 µM [1] did it give?
A: The inhibition at 30 µM was ~44%.

Q: And the inhibition at 30 µM [2]?
A: Its inhibition at 30 µM is 44%.

Q: `O=C(CCl)N1CCN(Cc2ccccc2)[C@]2(CCNC2=O)C1` [ET-104, 6-benzyl-9-(2-chloroacetyl)-2,6,9-triazaspiro[4.5]decan-1-one] was tested. Which inhibition at 30 µM [1] did it give?
A: The inhibition at 30 µM was ~92%.

Q: And the inhibition at 30 µM [2]?
A: Its inhibition at 30 µM is 92%.

Q: And the IC50?
A: The IC50 was 11.5 µM.

Q: For `O=C(CCl)N1CCN(Cc2ccc(F)cc2)C2(CCNC2=O)C1` (stereo not shown) [ET-107, 9-(2-chloroacetyl)-6-(4-fluorobenzyl)-2,6,9-triazaspiro[4.5]decan-1-one], which inhibition at 30 µM [2] is on record?
A: The inhibition at 30 µM was 38%.

Q: With `O=C(CI)N1CCN(Cc2ccccc2)C2(CCNC2=O)C1` (stereo not shown) [ET-109, 6-benzyl-9-(2-iodoacetyl)-2,6,9-triazaspiro[4.5]decan-1-one] as the compound, how does the inhibition at 30 µM [3] read?
A: Its inhibition at 30 µM is 36%.

Q: With `O=C(CI)N1CCN(Cc2ccccc2)C2(CCNC2=O)C1` (stereo not shown) [ET-110, 6-benzyl-9-(2-iodoacetyl)-2,6,9-triazaspiro[4.5]decan-1-one] as the compound, how does the inhibition at 30 µM (read-out: inhibition at 30 µM concentration, 30 µM concentration, approximate values) read?
A: Its inhibition at 30 µM is ~47%.

Q: For `CC(Cl)C(=O)N1CCN(Cc2ccccc2)C2(CCNC2=O)C1` (stereo not shown) [ET-111, 6-benzyl-9-(2-chloropropanoyl)-2,6,9-triazaspiro[4.5]decan-1-one], which inhibition at 30 µM [3] is on record?
A: The inhibition at 30 µM was 0%.

Q: `CC(Cl)C(=O)N1CCN(Cc2ccccc2)C2(CCNC2=O)C1` (stereo not shown) [ET-112, 6-benzyl-9-(2-chloropropanoyl)-2,6,9-triazaspiro[4.5]decan-1-one] was tested. Which “% Inhibition at 30 µM” value [4] did it give?
A: The value was 0%.

Q: `CC(Cl)C(=O)N1CCN(Cc2ccccc2)C2(CCNC2=O)C1` (stereo not shown) [ET-113, 6-benzyl-9-(2-chloropropanoyl)-2,6,9-triazaspiro[4.5]decan-1-one] was tested. Which “% Inhibition at 30 µM” value [4] did it give?
A: The value was 0%.

Q: With `CC(Cl)C(=O)N1CCN(Cc2ccccc2)C2(CCNC2=O)C1` (stereo not shown) [ET-114, 6-benzyl-9-(2-chloropropanoyl)-2,6,9-triazaspiro[4.5]decan-1-one] as the compound, how does the “% Inhibition at 30 µM” value [4] read?
A: The value was 0%.

Q: With `CCC(CC)OC(=O)C(C)NP(=O)(OCC(=O)N1CCN(Cc2ccccc2)C2(CCNC2=O)C1)Oc1ccccc1` (stereo not shown) [ET-115, Pentan-3-yl ((2-(6-benzyl-1-oxo-2,6,9-triazaspiro[4.5]decan-9-yl)-2-oxoethoxy)(phenoxy)phosphoryl)alaninate] as the compound, how does the “% Inhibition at 30 µM” value [5] read?
A: The value was 31%.

Q: How did the “% Inhibition at 30 µM” value [5] turn out when `CCC(CC)OC(=O)C(C)NP(=O)(OCC(=O)N1CCN(Cc2ccccc2)C2(CCNC2=O)C1)Oc1ccccc1` (stereo not shown) [ET-116, Pentan-3-yl ((2-(6-benzyl-1-oxo-2,6,9-triazaspiro[4.5]decan-9-yl)-2-oxoethoxy)(phenoxy)phosphoryl)alaninate] was run?
A: The value was 28%.

Q: `CCC(CC)OC(=O)C(C)NP(=O)(OCC(=O)N1CCN(Cc2ccccc2)C2(CCNC2=O)C1)Oc1ccccc1` (stereo not shown) [ET-117, Pentan-3-yl ((2-(6-benzyl-1-oxo-2,6,9-triazaspiro[4.5]decan-9-yl)-2-oxoethoxy)(phenoxy)phosphoryl)alaninate] was tested. Which “% Inhibition at 30 µM” value [5] did it give?
A: Its value is 15%.

Q: How did the “% Inhibition at 30 µM” value [5] turn out when `CCC(CC)OC(=O)C(C)NP(=O)(OCC(=O)N1CCN(Cc2ccccc2)C2(CCNC2=O)C1)Oc1ccccc1` (stereo not shown) [ET-118, Pentan-3-yl ((2-(6-benzyl-1-oxo-2,6,9-triazaspiro[4.5]decan-9-yl)-2-oxoethoxy)(phenoxy)phosphoryl)alaninate] was run?
A: Its value is 34%.

Q: How did the inhibition at 30 µM [3] turn out when `CCC(CC)OC(=O)[C@H](C)NP(=O)(OCC(=O)N1CCN(Cc2ccccc2)C2(CCNC2=O)C1)Oc1ccccc1` (stereo partly shown) [ET-119, Pentan-3-yl ((2-(6-benzyl-1-oxo-2,6,9-triazaspiro[4.5]decan-9-yl)-2-oxoethoxy)(phenoxy)phosphoryl)alaninate] was run?
A: Its inhibition at 30 µM is 34%.

Q: For `CCC(CC)OC(=O)[C@H](C)NP(=O)(OCC(=O)N1CCN(Cc2ccccc2)C2(CCNC2=O)C1)Oc1ccccc1` (stereo partly shown) [ET-120, Pentan-3-yl ((2-(6-benzyl-1-oxo-2,6,9-triazaspiro[4.5]decan-9-yl)-2-oxoethoxy)(phenoxy)phosphoryl)alaninate], which “% Inhibition at 30 µM” value [5] is on record?
A: The value was 30%.
